Data published in patent US10939684B2, “Preparation of sulfonamide-containing antimicrobials and substrate treating compositions of sulfonamide-containing antimicrobials” (NANO SAFE COATINGS INCORPORATED, priority 2015, dated 2021).
“Also recorded” adds a separate entry of the source.

System: Arthrobacter spp.
Experiment: Large-droplet inoculation method, antimicrobial efficacy at solid-air interfaces
Type: cell-based
Conditions: for Average: average of A-C; for A (cfu): replicate A; for B (cfu): replicate B; for C (cfu): replicate C
Description: Large-droplet inoculation method (Ronan E. et al, Biofouling 2013, 29, 1087-1096) Many pathogens are able to remain viable during extended periods of desiccation on inanimate surfaces. Long-term survival of pathogens in the inanimate environment pose a significant risk for infection transmission and contamination in high-risk environments such as hospital rooms or food-processing plants. The large-droplet inoculation method was developed to simulate the deposition of bacterial species onto exposed surfaces and to determine the ability of these cells to survive desiccation.
For these tests, small surface coupons were first coated with the antimicrobial using the method described above. Bacterial test species were grown overnight in a shaking incubator and cultures
were washed twice to replace the growth media with sterile water. 100 μL aliquots of the prepared culture were then inoculated onto multiple coated surfaces and allowed to air-dry within a biological safety cabinet. Drying typically occurred 2-3 hours after inoculation, and surviving cells were enumerated immediately and 24 hours after drying. For enumeration, inoculated coupons were sacrificed in triplicate and placed inside separate tubes containing 5 mL of a 0.9% saline collection liquid. Each coupon was agitated vigorously for 1 minute with a bench-top vortex to transfer cells from the test surface to the collection liquid. Plate counts were then performed on serial dilutions of the collection liquid, and colony counts from triplicate treated surfaces were averaged and compared to colony counts from tests of untreated control surfaces carried out in parallel.
A range of bacterial species were used in these tests. Arthrobacter spp., a gram-positive lab strain originally isolated from indoor air was used in the bulk of the testing, as it is known to be highly resistant to desiccation and therefore was used as a model for desiccation-tolerant pathogens. Efficacy tests were also carried out against, for example, gram-negative Escherichia coli (E. coli) and gram-positive Staphylococcus aureus (S. aureus), since they all contain pathogenic strains and have been implicated in major nosocomial outbreaks. […] The following are the tabulated bacterial reduction data: […]

[1] = treated cotton, compared to untreated control (FIG. 3, FIG. 4)
[2] = treated cotton, 3 hours, load 6.10E+07
[3] = treated cotton, 24 hours, load 6.10E+07
[4] = treated polyethylene, 3 hours, load 2.70E+07
[5] = treated polyethylene, 24 hours, load 2.70E+07
[6] = treated cotton, 3 hours, load 1.28E+08
[7] = treated cotton, 3 hours, load 4.04E+07
[8] = treated cotton, 24 hours, load 1.28E+08
[9] = treated cotton, 24 hours, load 4.04E+07

| Compound | activity against Arthrobacter spp. (in words) [1] | Average [2] [cfu] | A (cfu) [2] [cfu] | B (cfu) [2] [cfu] | C (cfu) [2] [cfu] | Average [3] [cfu] | A (cfu) [3] [cfu] | B (cfu) [3] [cfu] | C (cfu) [3] [cfu] | Average [7] [cfu] | A (cfu) [7] [cfu] | B (cfu) [7] [cfu] | C (cfu) [7] [cfu] | Average [9] [cfu] | A (cfu) [9] [cfu] | B (cfu) [9] [cfu] | C (cfu) [9] [cfu] | other results |
| --- | --- | --- | --- | --- | --- | --- | --- | --- | --- | --- | --- | --- | --- | --- | --- | --- | --- | --- |
| C[N+](C)(CCCNS(=O)(=O)c1cccc2ccccc12)CCCOc1ccc(C(=O)c2ccccc2)cc1.[Br-] [3-(4-benzoylphenoxy)-N,N-dimethyl-N-(3-(naphthalene-1-sulfonamido)propyl)propan-1-aminium bromide] | – | – | – | – | – | – | – | – | – | – | – | – | – | – | – | – | – | activity against Arthrobacter spp. (in words) (treated polyethylene coupons, compared to untreated control (FIG. 5)): excellent activity |
| CO[Si](CCC[N+](C)(C)CCCNS(=O)(=O)c1ccccc1)(OC)OC.[Cl-] [Example 1a, N,N-dimethyl-3-(phenylsulfonamido)-N-(3-(trimethoxysilyl)propyl)propan-1-aminium chloride] | eradicated within three hours; also recorded: excellent activity | 0.00E+00 | 0.00E+00 | 0.00E+00 | 0.00E+00 | 0.00E+00 | 0.00E+00 | 0.00E+00 | 0.00E+00 | – | – | – | – | – | – | – | – | – |
| C[N+](C)(CCCNS(=O)(=O)c1ccccc1)CCCOc1ccc(C(=O)c2ccccc2)cc1.[Br-] [Example 1c, 3-(4-benzoylphenoxy)-N,N-dimethyl-N-(3-(phenylsulfonamido)propyl) propan-1-aminium bromide] | – | – | – | – | – | – | – | – | – | – | – | – | – | – | – | – | – | activity against Arthrobacter spp. (in words) (treated polyethylene coupons, compared to untreated control (FIG. 5), listed as 3-(4-benzoylphenoxy)-N,N-dimethyl-N-(3-(phenyl sulfonamido)propyl)propan- 1-amin): excellent activity; activity against Arthrobacter spp. (in words) (treated polyethylene coupons, compared to untreated control (FIG. 5), listed as 3-(4-benzoylphenoxy)-N,N-dimethyl-N-(3-(phenylsulfonamido)propyl)propan-1-aminiu): eradicated within three hours; Average [4]: 0.00E+00 cfu; A (cfu) [4]: 0.00E+00 cfu; B (cfu) [4]: 0.00E+00 cfu; C (cfu) [4]: 0.00E+00 cfu; Average [5]: 0.00E+00 cfu; A (cfu) [5]: 0.00E+00 cfu; B (cfu) [5]: 0.00E+00 cfu; C (cfu) [5]: 0.00E+00 cfu |
| CO[Si](CCC[N+](C)(C)CCCNS(=O)(=O)c1ccc(C)cc1)(OC)OC.[Cl-] [Example 2a, N,N-dimethyl-3-(4-methylphenylsulfonamido)-N-(3-(trimethoxysilyl)propyl) propan-1-aminium chloride] | – | – | – | – | – | – | – | – | – | 0.00E+00 | 0.00E+00 | 0.00E+00 | 0.00E+00 | 0.00E+00 | 0.00E+00 | 0.00E+00 | 0.00E+00 | activity against Arthrobacter spp. (in words) (treated cotton, compared to untreated control (FIG. 3, FIG. 4), listed as N,N-dimethyl-3-(4-methylphenyl sulfonamido)-N-(3-(trimethoxysilyl)propyl)propan-): excellent activity; activity against Arthrobacter spp. (in words) (treated cotton, compared to untreated control (FIG. 3, FIG. 4), listed as N,N-dimethyl-3-(4-methylphenylsulfonamido)-N-(3-(trimethoxysilyl) propyl)propan-): excellent activity; activity against Arthrobacter spp. (in words) (treated cotton, compared to untreated control (FIG. 3, FIG. 4), listed as N,N-dimethyl-3-(4-methylphenylsulfonamido)-N-(3-(trimethoxysilyl)propyl)propan-1): eradicated within three hours; Average [6]: 0.00E+00 cfu; A (cfu) [6]: 0.00E+00 cfu; B (cfu) [6]: 0.00E+00 cfu; C (cfu) [6]: 0.00E+00 cfu; Average [8]: 0.00E+00 cfu; A (cfu) [8]: 0.00E+00 cfu; B (cfu) [8]: 0.00E+00 cfu; C (cfu) [8]: 0.00E+00 cfu |
| CO[Si](CCC[N+](C)(C)CCCNS(=O)(=O)c1c(C)cc(C)cc1C)(OC)OC.[Cl-] [Example 3a, N,N-dimethyl-3-(trimethoxysilyl)-N-(3-(2,4,6-trimethylphenylsulfonamido)propyl)propan-1-aminium chloride] | – | – | – | – | – | – | – | – | – | 0.00E+00 | 0.00E+00 | 0.00E+00 | 0.00E+00 | 0.00E+00 | 0.00E+00 | 0.00E+00 | 0.00E+00 | activity against Arthrobacter spp. (in words) (treated cotton, compared to untreated control (FIG. 3, FIG. 4), listed as N,N-dimethyl-3-(trimethoxysilyl)-N-(3-(2,4,6-trimethyl phenylsulfonamido)propyl)): excellent activity; activity against Arthrobacter spp. (in words) (treated cotton, compared to untreated control (FIG. 3, FIG. 4), listed as N,N-dimethyl-3-(trimethoxysilyl)-N-(3-(2,4,6-trimethylphenylsulfonamido)propyl)p): eradicated within three hours |
| CO[Si](CCC[N+](C)(C)CCCNS(=O)(=O)c1cccc2ccccc12)(OC)OC.[Cl-] [Example 5a, N,N-dimethyl-3-(naphthalene-1-sulfonamido)-N-(3-(trimethoxysilyl)propyl)propan-1-aminium chloride] | eradicated within three hours; also recorded: excellent activity | 0.00E+00 | 0.00E+00 | 0.00E+00 | 0.00E+00 | 0.00E+00 | 0.00E+00 | 0.00E+00 | 0.00E+00 | – | – | – | – | – | – | – | – | – |
